For one compound, Kd results are on record in publication PMC12096079, “m^6A modification is incorporated into bacterial mRNA without specific functional benefit” (Nucleic Acids Research, 2025).

For the assay, the target named is YafS (Escherichia coli, UniProt P75672). The experiment in a line: intrinsic tryptophan fluorescence quenching titration (ex […] nm, em […] nm). It counts as binding.
Chain of YafS (P75672 whole entry): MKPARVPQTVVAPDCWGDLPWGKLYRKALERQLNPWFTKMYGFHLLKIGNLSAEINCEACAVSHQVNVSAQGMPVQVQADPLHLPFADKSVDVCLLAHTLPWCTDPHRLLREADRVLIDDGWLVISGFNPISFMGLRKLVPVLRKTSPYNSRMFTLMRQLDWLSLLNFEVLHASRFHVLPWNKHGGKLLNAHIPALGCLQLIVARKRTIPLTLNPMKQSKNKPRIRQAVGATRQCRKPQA

Consider `C[S+](CC[C@H](N)C(=O)O)C[C@H]1O[C@@H](n2cnc3c(N)ncnc32)[C@H](O)[C@@H]1O` (stereo partly shown) [SAM], for which the Kd was found to be 680 ± 100 nM.

By Kd is commonly meant the constant that tells how readily two partners part at equilibrium. The low end stands for a tighter complex, the high end for a looser complex.
